Assay results taken from patent US5054434A, “Suppression of ammonia odors from animal wastes” (W. R. Grace & Co.-Conn., priority 1989, dated 1991).
Counter-ions that a name gives are not always drawn.

What was measured:
[1] = smell of the acid itself; cited from earlier work
[2] = molecular target: jack bean urease (Canavalia ensiformis, UniProt P07374); test: Ammonia accumulation from synthetic urine with urease on treated bedding; type: biochemical; settings: for control of accumulation of ammonia: procedure of Example 1; for ammonia smell in capped bottle: 12 mg acid, 15 g synthetic urine with 200 units urease, 37.5° C., after 4 hr
Sequence of jack bean urease (P07374 whole entry, looked up): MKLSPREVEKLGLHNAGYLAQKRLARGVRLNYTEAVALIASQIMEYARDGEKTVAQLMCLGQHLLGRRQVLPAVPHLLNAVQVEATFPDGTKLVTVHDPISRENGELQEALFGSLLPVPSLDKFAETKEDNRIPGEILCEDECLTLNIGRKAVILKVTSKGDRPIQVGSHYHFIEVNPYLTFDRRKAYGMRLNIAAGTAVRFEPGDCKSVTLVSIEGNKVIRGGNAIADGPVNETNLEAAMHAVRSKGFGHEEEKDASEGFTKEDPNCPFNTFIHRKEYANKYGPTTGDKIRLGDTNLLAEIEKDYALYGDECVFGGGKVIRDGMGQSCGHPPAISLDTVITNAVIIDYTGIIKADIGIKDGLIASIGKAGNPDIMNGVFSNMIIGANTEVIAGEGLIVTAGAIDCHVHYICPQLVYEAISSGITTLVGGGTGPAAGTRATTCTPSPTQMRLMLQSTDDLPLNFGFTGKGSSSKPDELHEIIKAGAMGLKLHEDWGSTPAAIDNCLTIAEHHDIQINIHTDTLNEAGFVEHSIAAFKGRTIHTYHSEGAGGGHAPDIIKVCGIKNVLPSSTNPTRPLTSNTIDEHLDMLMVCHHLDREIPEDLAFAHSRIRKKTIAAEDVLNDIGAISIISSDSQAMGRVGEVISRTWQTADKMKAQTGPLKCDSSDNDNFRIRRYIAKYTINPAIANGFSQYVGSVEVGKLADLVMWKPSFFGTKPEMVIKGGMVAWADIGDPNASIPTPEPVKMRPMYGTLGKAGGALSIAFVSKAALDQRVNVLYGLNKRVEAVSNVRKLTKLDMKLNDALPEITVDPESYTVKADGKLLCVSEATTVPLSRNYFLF
Protocol: To test the effectiveness of the acid the following procedure has been used. A synthetic urine is made by combining 2.3 wt % urea and 1.1 wt % sodium chloride. To mimic the presence of bacteria, 200 units of jack bean urease is added to the synthetic urine. Jack bean urease is a readily available form of urease which is suitable for use in this context because useases from most natural sources appear to act similarly. See "Jack Bean Urease (EC 3.5.1.5).8. […] Chem. Soc. 1986, 108, 7124-7125.
This urine is then poured over a sample of bedding or other absorbent material to which the acid has been applied. The treated sample is covered so that any gases produced may accumulate. The presence of ammonia is tested for by using Draeger tubes.
Two 8 oz. polyethylene bottles were charged with 15 g of rice hulls and 15 g of sawdust, respectively. […] The bottles were capped, and incubated in a shaker bath at 37.5° C. […] By contrast, identical bottles not containing citric acid smelled strongly of ammonia.

[3] = cited from earlier work
[4] = test system: rabbit; settings: cited from earlier work
[5] = test system: urease; settings: literature statement (Mobley and Hausinger 1989); cited from earlier work
[6] = test system: Bacillus pasteurii; test: Ammonia accumulation from synthetic urine on rice hulls with live urease-producing bacteria; settings: 24 mg acid, 6 g rice hulls, 24 g synthetic urine, 37.5° C., after one day

O=C(O)CCC(=O)O [Succinic, succinic]
Smell [1]: None

OB(O)O [boric acid, reference compound]
control of accumulation of ammonia ([2]; 36 mg): not control the accumulation of ammonia
First pKa [3]: 9.1

O=C(O)CC(O)C(=O)O (stereo not drawn) [Malic, malic acid]
Oral LD50 [4]: 5,000 mg/kg
control of accumulation of ammonia ([2]; 12 mg): sufficient to prevent the accumulation of noticeable amounts of ammonia
Smell [1]: None

O=C(O)/C=C/C(=O)O [Fumaric, fumaric acid]
control of accumulation of ammonia ([2]; 6 mg): sufficient to prevent the accumulation of noticeable amounts of ammonia

O=C(O)CC(O)(CC(=O)O)C(=O)O [sodium citrate, reference compound]
control of accumulation of ammonia ([2]; 24 mg): not to control the accumulation of ammonia

O=C(O)CC(=O)O [Malonic, malonic]
Smell [1]: None

C/C=C/C=C/C(=O)O [Sorbic, sorbic]
Smell [1]: None
First pKa [3]: 4.8

CC(=O)O [acetic acid, reference compound]
Smell [1]: strong and unpleasant smell

phosphoric acid
control of accumulation of ammonia ([2]; 6 mg): sufficient to prevent the accumulation of noticeable amounts of ammonia
inhibition of urease [5]: inhibitor of urease

O=C(O)CC(O)(CC(=O)O)C(=O)O [Citric, citric acid]
ammonia smell in capped bottle ([2]; 15 g rice hulls): no ammonia smell could be detected
ammonia smell in capped bottle ([2]; 15 g sawdust): no ammonia smell could be detected
ammonia in bottle measured using a Draeger tube [6]: less than 5 ppm
Smell [1]: None
